From patent US20260356849A1, “COMPOUNDS AND METHODS FOR TREATING CANCERS” (CEDARS-SINAI MEDICAL CENTER, priority 2022, published 2026)
pIC50: −log10 of the molar value.

Key:
Format in all cases: cell-based
RKO cells = test: MTT assay in RKO cells; conditions: Homo sapiens
Protocol: (§1) The inventors identified nine inhibitors and perfomed an EdU assay after treating non-malignant (HEK293, AML12) and malignant (HepG2, MzChA-1, HT-29, RKO) cells with varying concentrations of GIT1 inhibitor for 24 hours (results are mean±SE from 3 independent experiments done in duplicates, *p<0.05 vs. DMSO). An MTT assay was also performed after treating primary human and mouse hepatocytes and liver and colon cancer cells with varying concentrations of GIT1 inhibitor for 24 hours (results are mean±SE from 3 independent experiments done in duplicates, *p<0.05 vs. DMSO). […] Percoll may be used to remove dead human hepatocytes.

mouse hepatocytes = test: Toxicity in mouse hepatocytes; conditions: data not shown
Protocol: as §1

HepG2 cells = test: MTT assay in HepG2 cells; conditions: Homo sapiens
Protocol: as §1

human hepatocytes = test: Toxicity in human hepatocytes; conditions: data not shown
Protocol: as §1

With `CC1(C)Cc2nc3sc4c(=O)n(CC(=O)N5CCOCC5)cnc4c3cc2CO1` [Compound C33] the pIC50 (RKO cells) was 6.01, the “toxicity in mouse hepatocytes” value (mouse hepatocytes) was “no toxicity” and the pIC50 (HepG2 cells) was 6.08. The “toxicity in human hepatocytes” value (human hepatocytes) was “no toxicity”.

For `CC(=O)c1ccc(NC(=O)Cn2cnc3c(sc4nc5c(cc43)COC(C)(C)C5)c2=O)cc1` [Compound C38], the pIC50 (RKO cells) was < 4.60 and the pIC50 (HepG2 cells) was < 4.30.

For `COc1cccc(NC(=O)Cn2cnc3c(sc4nc5c(cc43)COC(C)(C)C5)c2=O)c1` [Compound C39], the pIC50 (RKO cells) was < 4.30 and the pIC50 (HepG2 cells) was < 4.60.
